{"source": "patent US9273057B2", "about": "(Bristol-Myers Squibb Company, priority 2012, dated 2016)", "biological_target": "CK2A1 (CK2α/β) (Homo sapiens, UniProt P68400)", "sequence (P68400 whole entry, species assumed)": "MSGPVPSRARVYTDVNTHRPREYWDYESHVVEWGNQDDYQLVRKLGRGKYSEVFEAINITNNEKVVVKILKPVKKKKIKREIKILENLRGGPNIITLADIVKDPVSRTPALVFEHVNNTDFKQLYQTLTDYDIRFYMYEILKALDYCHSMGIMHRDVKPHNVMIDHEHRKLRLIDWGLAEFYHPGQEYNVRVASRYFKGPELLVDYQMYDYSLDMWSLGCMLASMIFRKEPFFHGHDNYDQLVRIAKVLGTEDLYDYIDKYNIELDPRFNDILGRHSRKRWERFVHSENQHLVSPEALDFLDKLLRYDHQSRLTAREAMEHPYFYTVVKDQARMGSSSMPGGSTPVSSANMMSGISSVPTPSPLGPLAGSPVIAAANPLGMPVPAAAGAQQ", "sequence (P67870 whole entry partner, species assumed)": "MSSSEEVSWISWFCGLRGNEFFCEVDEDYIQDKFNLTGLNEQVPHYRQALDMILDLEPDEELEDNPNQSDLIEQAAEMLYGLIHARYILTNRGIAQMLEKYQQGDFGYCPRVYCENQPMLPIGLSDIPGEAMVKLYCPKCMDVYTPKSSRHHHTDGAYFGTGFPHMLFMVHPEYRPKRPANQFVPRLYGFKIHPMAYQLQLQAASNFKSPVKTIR", "test": "CK2 kinase assay, CK2A1 (CK2α/β)", "format": "biochemical", "settings": "Table A; read-out: CK2A1 (CK2α/β) (IC50)", "protocol": "For example, in vitro protein kinase assays may be conducted with a relevant purified protein kinase and an appropriate synthetic substrate to determine the inhibitory activity of the compounds. […] Reaction mixtures were incubated at 30° C. for 1 hour, and reaction products were captured by binding to phosphocellulose (P81) filter plates. Incorporation of radioactive phosphate into the peptide substrate was determined by liquid scintillation counting.\nThe inhibitory activity of the instant compounds may also be measured by recombinant CK2 holoenzyme kinase assays. The assays were performed in U-bottom 384-well plates. […] The reaction was initiated by the combination of bacterially expressed, CK2 α/β or CK2 holoenzyme with substrates and test compounds. The reaction was incubated at room temperature for 60 minutes and terminated by adding 30 μl of 35 mM EDTA to each sample. The reaction mixture was analyzed on the Caliper LABCHIP® 3000 (Caliper, Hopkinton, Mass.) by electrophoretic separation of the fluorescent substrate and phosphorylated product. […] Compounds were dissolved at 10 mM in dimethylsulfoxide (DMSO) and evaluated at eleven concentrations. IC50 values were derived by non-linear regression analysis."}
{"molecule": "CN(CCN)c1cc(Cl)c(Nc2nc(NC3CC3)c3ncc(C#N)n3n2)cc1C#N", "note": "[Example 412, 2-((4-((2-aminoethyl)(methyl)amino)-2-chloro-5-cyanophenyl)amino)-4-(cyclopropylamino)imidazo[2,1-f][1,2,4]triazine-7-carbonitrile]", "values": [{"measurement": "IC50", "value": 0.43, "unit": "nM"}]}
{"molecule": "CN(CCNC1COC1)c1cc(Cl)c(Nc2nc(NC3CC3)c3ncc(C#N)n3n2)cc1C#N", "note": "[Example 413, 2-((2-chloro-5-cyano-4-(methyl(2-(oxetan-3-ylamino)ethyl)amino)phenyl)amino)-4-(cyclopropylamino)imidazo[2,1-f][1,2,4]triazine-7-carbonitrile]", "values": [{"measurement": "IC50", "value": 0.39, "unit": "nM"}]}
{"molecule": "N#Cc1cc(Nc2nc(NC3CC3)c3ncc(C#N)n3n2)c(F)cc1F", "note": "[Example 414, 2-((5-cyano-2,4-difluorophenyl)amino)-4-(cyclopropylamino)imidazo[2,1-f][1,2,4]triazine-7-carbonitrile]", "values": [{"measurement": "IC50", "value": 0.99, "unit": "nM"}]}
{"molecule": "N#Cc1cc(Nc2nc(NC3CC3)c3ncc(C#N)n3n2)c(F)cc1OCCN1CCOCC1", "note": "[Example 416, 2-((5-cyano-2-fluoro-4-(2-morpholinoethoxy)phenyl)amino)-4-(cyclopropylamino)imidazo[2,1-f][1,2,4]triazine-7-carbonitrile]", "values": [{"measurement": "IC50", "value": 0.68, "unit": "nM"}]}
{"molecule": "N#Cc1cc(Nc2nc(NC3CC3)c3ncc(C#N)n3n2)c(F)cc1OC[C@@H]1COCCN1", "note": "[Example 417, (S)-2-((5-cyano-2-fluoro-4-(morpholin-3-ylmethoxy)phenyl)amino)-4-(cyclopropylamino)imidazo[2,1-f][1,2,4]triazine-7-carbonitrile]", "values": [{"measurement": "IC50", "value": 0.31, "unit": "nM"}]}
{"molecule": "N#Cc1cc(Nc2nc(NC3CC3)c3ncc(C#N)n3n2)c(OCCN2CCOCC2)cc1F", "note": "[Example 421, 2-((5-cyano-4-fluoro-2-(2-morpholinoethoxy)phenyl)amino)-4-(cyclopropylamino)imidazo[2,1-f][1,2,4]triazine-7-carbonitrile]", "values": [{"measurement": "IC50", "value": 0.61, "unit": "nM"}]}
{"molecule": "N#Cc1cc(Nc2nc(NC3CC3)c3ncc(C#N)n3n2)c(OCCN2CCOCC2)cc1OCCN1CCOCC1", "note": "[Example 422, 2-((5-cyano-2,4-bis(2-morpholinoethoxy)phenyl)amino)-4-(cyclopropylamino)imidazo[2,1-f][1,2,4]triazine-7-carbonitrile]", "values": [{"measurement": "IC50", "value": 2.73, "unit": "nM"}]}
{"molecule": "N#Cc1cc(Nc2nc(NC3CC3)c3ncc(C#N)n3n2)c(OC[C@@H]2COCCN2)cc1F", "note": "[Example 424, (S)-2-((5-cyano-4-fluoro-2-(morpholin-3-ylmethoxy)phenyl)amino)-4-(cyclopropylamino)imidazo[2,1-f][1,2,4]triazine-7-carbonitrile]", "values": [{"measurement": "IC50", "value": 5.12, "unit": "nM"}]}
{"molecule": "N#Cc1cc(Nc2nc(NC3CC3)c3ncc(C#N)n3n2)c(Cl)c(OC2CCN(C3COC3)CC2)c1", "note": "[Example 425, 2-((2-chloro-5-cyano-3-((1-(oxetan-3-yl)piperidin-4-yl)oxy)phenyl)amino)-4-(cyclopropylamino)imidazo[2,1-f][1,2,4]triazine-7-carbonitrile]", "values": [{"measurement": "IC50", "value": 0.73, "unit": "nM"}]}
{"molecule": "CC1(N2CCC(Oc3cc(C#N)cc(Nc4nc(NC5CC5)c5ncc(C#N)n5n4)c3Cl)CC2)COC1", "note": "[Example 427, 2-((2-chloro-5-cyano-3-((1-(3-methyloxetan-3-yl)piperidin-4-yl)oxy)phenyl)amino)-4-(cyclopropylamino)imidazo[2,1-f][1,2,4]triazine-7-carbonitrile]", "values": [{"measurement": "IC50", "value": 0.78, "unit": "nM"}]}
{"molecule": "CN1CCN(c2cc(Cl)c(Nc3nc(NC4CC4)c4ncc(C#N)n4n3)cc2C#N)CC1", "note": "[Example 432, 2-((2-chloro-5-cyano-4-(4-methyl-1-piperazinyl)phenyl)amino)-4-(cyclopropylamino)imidazo[2,1-f][1,2,4]triazine-7-carbonitrile]", "values": [{"measurement": "IC50", "value": 2.9, "unit": "nM"}]}
{"molecule": "N#Cc1cc(Nc2nc(NC3CC3)c3ncc(C#N)n3n2)c(Cl)c(OC[C@@H]2COCCN2)c1", "note": "[Example 439, (S)-2-((2-chloro-5-cyano-3-(morpholin-3-ylmethoxy)phenyl)amino)-4-(cyclopropylamino)imidazo[2,1-f][1,2,4]triazine-7-carbonitrile]", "values": [{"measurement": "IC50", "value": 0.75, "unit": "nM"}]}
{"molecule": "N#Cc1cc(Nc2nc(NC3CC3)c3ncc(C#N)n3n2)c(Cl)c(OCC2CNCCO2)c1", "note": "(stereo not shown) [Example 441, 2-((2-chloro-5-cyano-3-(morpholin-2-ylmethoxy)phenyl)amino)-4-(cyclopropylamino)imidazo[2,1-f][1,2,4]triazine-7-carbonitrile]", "values": [{"measurement": "IC50", "value": 1.17, "unit": "nM"}]}
{"molecule": "CN1CCC2CN(c3cc(C#N)cc(Nc4nc(NC5CC5)c5ncc(C#N)n5n4)c3Cl)CCC21", "note": "(stereo not shown) [Example 443, 2-((2-chloro-5-cyano-3-(1-methylhexahydro-1H-pyrrolo[3,2-c]pyridin-5(6H)-yl)phenyl)amino)-4-(cyclopropylamino)imidazo[2,1-f][1,2,4]triazine-7-carbonitrile]", "values": [{"measurement": "IC50", "value": 2.93, "unit": "nM"}]}
{"molecule": "N#Cc1cc(Nc2nc(NC3CC3)c3ncc(C#N)n3n2)c(Cl)c(N2CCC3C(CCN3C3COC3)C2)c1", "note": "(stereo not shown) [Example 444, 2-((2-chloro-5-cyano-3-(1-(oxetan-3-yl)hexahydro-1H-pyrrolo[3,2-c]pyridin-5(6H)-yl)phenyl)amino)-4-(cyclopropylamino)imidazo[2,1-f][1,2,4]triazine-7-carbonitrile]", "values": [{"measurement": "IC50", "value": 0.76, "unit": "nM"}]}
{"molecule": "COC(=O)N1CCC2CN(c3cc(C#N)cc(Nc4nc(NC5CC5)c5ncc(C#N)n5n4)c3Cl)CCC21", "note": "(stereo not shown) [Example 445, methyl 5-(2-chloro-5-cyano-3-((7-cyano-4-(cyclopropylamino)imidazo[2,1-f][1,2,4]triazin-2-yl)amino)phenyl)octahydro-1H-pyrrolo[3,2-c]pyridine-1-carboxylate]", "values": [{"measurement": "IC50", "value": 2.9, "unit": "nM"}]}
{"molecule": "CC(=O)N1CCC2CN(c3cc(C#N)cc(Nc4nc(NC5CC5)c5ncc(C#N)n5n4)c3Cl)CCC21", "note": "(stereo not shown) [Example 446, 2-((3-(1-acetylhexahydro-1H-pyrrolo[3,2-c]pyridin-5(6H)-yl)-2-chloro-5-cyanophenyl)amino)-4-(cyclopropylamino)imidazo[2,1-f][1,2,4]triazine-7-carbonitrile]", "values": [{"measurement": "IC50", "value": 3.48, "unit": "nM"}]}
{"molecule": "N#Cc1cc(Nc2nc(NC3CC3)c3ncc(C#N)n3n2)c(Cl)c(N2CCC3C(CCN3C[C@@H](O)CF)C2)c1", "note": "(stereo partly drawn) [Example 448, 2-((2-chloro-5-cyano-3-(1-((R)-3-fluoro-2-hydroxypropyl)hexahydro-1H-pyrrolo[3,2-c]pyridin-5(6H)-yl)phenyl)amino)-4-(cyclopropylamino)imidazo[2,1-f][1,2,4]triazine-7-carbonitrile]", "values": [{"measurement": "IC50", "value": 0.88, "unit": "nM"}]}
{"molecule": "N#Cc1cc(Nc2nc(NC3CC3)c3ncc(C#N)n3n2)c(Cl)c(N2CCC3C(CCN3C[C@H](O)CF)C2)c1", "note": "(stereo partly drawn) [Example 449, 2-((2-chloro-5-cyano-3-(1-((S)-3-fluoro-2-hydroxypropyl)hexahydro-1H-pyrrolo[3,2-c]pyridin-5(6H)-yl)phenyl)amino)-4-(cyclopropylamino)imidazo[2,1-f][1,2,4]triazine-7-carbonitrile]", "values": [{"measurement": "IC50", "value": 0.91, "unit": "nM"}]}
{"molecule": "CC(C)(O)CN1CCC2CN(c3cc(C#N)cc(Nc4nc(NC5CC5)c5ncc(C#N)n5n4)c3Cl)CCC21", "note": "(stereo not shown) [Example 450, 2-((2-chloro-5-cyano-3-(1-(2-hydroxy-2-methylpropyl)hexahydro-1H-pyrrolo[3,2-c]pyridin-5(6H)-yl)phenyl)amino)-4-(cyclopropylamino)imidazo[2,1-f][1,2,4]triazine-7-carbonitrile]", "values": [{"measurement": "IC50", "value": 1.5, "unit": "nM"}]}
{"molecule": "N#Cc1cc(Nc2nc(NC3CC3)c3ncc(C#N)n3n2)c(Cl)c(N2CC[C@@H]3[C@@H](CCN3[C@H]3CS(=O)(=O)C[C@@H]3O)C2)c1", "note": "[Example 452, 2-((2-chloro-5-cyano-3-(1-((3R,4R)-4-hydroxy-1,1-dioxidotetrahydrothiophen-3-yl)hexahydro-1H-pyrrolo[3,2-c]pyridin-5(6H)-yl)phenyl)amino)-4-(cyclopropylamino)imidazo[2,1-f][1,2,4]triazine-7-carbonitrile]", "values": [{"measurement": "IC50", "value": 0.82, "unit": "nM"}]}
{"molecule": "N#Cc1cc(Nc2nc(NC3CC3)c3ncc(C#N)n3n2)c(Cl)c(N2CC3CNCC3C2)c1", "note": "(stereo not shown) [Example 455, 2-((2-chloro-5-cyano-3-(hexahydropyrrolo[3,4-c]pyrrol-2(1H)-yl)phenyl)amino)-4-(cyclopropylamino)imidazo[2,1-f][1,2,4]triazine-7-carbonitrile]", "values": [{"measurement": "IC50", "value": 0.49, "unit": "nM"}]}
{"molecule": "CN1CC2CN(c3cc(C#N)cc(Nc4nc(NC5CC5)c5ncc(C#N)n5n4)c3Cl)CC2C1", "note": "(stereo not shown) [Example 461, 2-((2-chloro-5-cyano-3-(5-methylhexahydropyrrolo[3,4-c]pyrrol-2(1H)-yl)phenyl)amino)-4-(cyclopropylamino)imidazo[2,1-f][1,2,4]triazine-7-carbonitrile]", "values": [{"measurement": "IC50", "value": 2.46, "unit": "nM"}]}
{"molecule": "COC(=O)N1CC2CN(c3cc(C#N)cc(Nc4nc(NC5CC5)c5ncc(C#N)n5n4)c3Cl)CC2C1", "note": "(stereo not shown) [Example 462, methyl 5-(2-chloro-5-cyano-3-((7-cyano-4-(cyclopropylamino)imidazo[2,1-f][1,2,4]triazin-2-yl)amino)phenyl)hexahydro-pyrrolo[3,4-c]pyrrole-2(1H)-carboxylate]", "values": [{"measurement": "IC50", "value": 3, "unit": "nM"}]}
{"molecule": "N#Cc1cc(CN2CCCC3(COC3)C2)c(Cl)c(Nc2nc(NC3CC3)c3ncc(C#N)n3n2)c1", "note": "[Example 463, 2-((3-(2-oxa-6-azaspiro[3.5]nonan-6-ylmethyl)-2-chloro-5-cyanophenyl)amino)-4-(cyclopropylamino)imidazo[2,1-f][1,2,4]triazine-7-carbonitrile]", "values": [{"measurement": "IC50", "value": 1, "unit": "nM"}]}
{"molecule": "CN(CCC#N)Cc1cc(C#N)cc(Nc2nc(NC3CC3)c3ncc(C#N)n3n2)c1Cl", "note": "[Example 464, 2-[(2-chloro-5-cyano-3-{[(2-cyanoethyl)(methyl)amino]methyl}phenyl)amino]-4-(cyclopropylamino)imidazo[2,1-f][1,2,4]triazine-7-carbonitrile]", "values": [{"measurement": "IC50", "value": 0.57, "unit": "nM"}]}
{"molecule": "N#Cc1cc(CN2CCN(CCO)CC2)c(Cl)c(Nc2nc(NC3CC3)c3ncc(C#N)n3n2)c1", "note": "[Example 465, 2-[(2-chloro-5-cyano-3-{[4-(2-hydroxyethyl)piperazin-1-yl]methyl}phenyl)amino]-4-(cyclopropylamino)imidazo[2,1-f][1,2,4]triazine-7-carbonitrile]", "values": [{"measurement": "IC50", "value": 1.66, "unit": "nM"}]}
{"molecule": "N#Cc1cc(CNCCN2CCOCC2)c(Cl)c(Nc2nc(NC3CC3)c3ncc(C#N)n3n2)c1", "note": "[Example 466, 2-{[2-chloro-5-cyano-3-({[2-(morpholin-4-yl)ethyl]amino}methyl)phenyl]amino}-4-(cyclopropylamino)imidazo[2,1-f][1,2,4]triazine-7-carbonitrile]", "values": [{"measurement": "IC50", "value": 1.31, "unit": "nM"}]}
